According to article PMC8800111 (The Journal of Biological Chemistry, 2021):
Like-named read-outs stand apart in the source and are kept apart here.

Tests used:
Format in all cases: cell-based
[1] = target: proteins of U3A human fibrosarcoma cells (4462 proteins detected) (Homo sapiens, UniProt Q8NB16); conditions: protein MLKL; U3A, 10 μM, 2 h
[2] = target: proteins of U3A human fibrosarcoma cells (4462 proteins detected) (Homo sapiens, UniProt Q8NBN3); conditions: protein TMEM87A; U3A cells
[3] = target: proteins of U3A human fibrosarcoma cells (4462 proteins detected) (Homo sapiens, UniProt Q9H2U1); conditions: protein DHX36, U3A cells
[4] = target: proteins of U3A human fibrosarcoma cells (4462 proteins detected) (Homo sapiens, UniProt O60749); conditions: protein SNX2; U3A cells
[5] = target: proteins of U3A human fibrosarcoma cells (4462 proteins detected) (Homo sapiens, UniProt O75909); conditions: protein CCNK; U3A cells
[6] = target: proteins of U3A human fibrosarcoma cells (4462 proteins detected) (Homo sapiens, UniProt Q9BY89); conditions: protein KIAA1671, U3A cells
[7] = target: proteins of U3A human fibrosarcoma cells (4462 proteins detected) (Homo sapiens, UniProt P50990); conditions: protein CCT8; U3A cells
[8] = target: proteins of U3A human fibrosarcoma cells (4462 proteins detected) (Homo sapiens, UniProt P62847); conditions: protein RPS24, U3A cells
[9] = target: proteins of U3A human fibrosarcoma cells (4462 proteins detected) (Homo sapiens, UniProt P26440); conditions: protein IVD, U3A cells
proteins of U3A human fibrosarcoma cells (4462 proteins detected) (Homo sapiens, UniProt P26440), sequence (P26440 33-426): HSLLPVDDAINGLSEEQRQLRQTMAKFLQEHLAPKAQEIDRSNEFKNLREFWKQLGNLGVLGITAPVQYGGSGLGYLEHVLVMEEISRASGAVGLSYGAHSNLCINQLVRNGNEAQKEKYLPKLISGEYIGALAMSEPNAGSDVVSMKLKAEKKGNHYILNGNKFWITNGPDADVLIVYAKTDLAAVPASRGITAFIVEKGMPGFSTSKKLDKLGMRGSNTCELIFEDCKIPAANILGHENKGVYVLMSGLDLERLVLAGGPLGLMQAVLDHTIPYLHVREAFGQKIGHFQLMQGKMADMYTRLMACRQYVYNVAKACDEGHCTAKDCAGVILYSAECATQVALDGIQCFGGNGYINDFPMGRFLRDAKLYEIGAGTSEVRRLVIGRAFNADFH

[10] = target: proteins of U3A human fibrosarcoma cells (4462 proteins detected) (Homo sapiens, UniProt O95983); conditions: protein MBD3; U3A cells
proteins of U3A human fibrosarcoma cells (4462 proteins detected) (Homo sapiens, UniProt O95983), sequence (O95983 whole entry): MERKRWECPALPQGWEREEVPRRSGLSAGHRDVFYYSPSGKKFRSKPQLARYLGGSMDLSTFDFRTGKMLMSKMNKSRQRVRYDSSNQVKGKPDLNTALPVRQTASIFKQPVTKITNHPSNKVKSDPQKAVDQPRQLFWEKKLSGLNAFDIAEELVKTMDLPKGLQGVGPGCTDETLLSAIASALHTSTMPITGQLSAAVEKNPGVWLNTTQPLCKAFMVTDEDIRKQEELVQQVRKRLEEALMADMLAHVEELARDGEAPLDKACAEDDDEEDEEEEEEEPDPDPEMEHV

[11] = system: proteins of U3A human fibrosarcoma cells (4462 proteins detected)
[12] = target: proteins of U3A human fibrosarcoma cells (4462 proteins detected) (Homo sapiens, UniProt Q96PK6); conditions: protein RBM14; soluble abundance after heat, U3A cells
[13] = target: proteins of U3A human fibrosarcoma cells (4462 proteins detected) (Homo sapiens, UniProt Q9NRW3); conditions: protein APOBEC3C; U3A cells
[14] = target: proteins of U3A human fibrosarcoma cells (4462 proteins detected) (Homo sapiens, UniProt Q96QG7); conditions: protein MTMR9; soluble abundance after heat, U3A cells
proteins of U3A human fibrosarcoma cells (4462 proteins detected) (Homo sapiens, UniProt Q96QG7), sequence (Q96QG7 whole entry): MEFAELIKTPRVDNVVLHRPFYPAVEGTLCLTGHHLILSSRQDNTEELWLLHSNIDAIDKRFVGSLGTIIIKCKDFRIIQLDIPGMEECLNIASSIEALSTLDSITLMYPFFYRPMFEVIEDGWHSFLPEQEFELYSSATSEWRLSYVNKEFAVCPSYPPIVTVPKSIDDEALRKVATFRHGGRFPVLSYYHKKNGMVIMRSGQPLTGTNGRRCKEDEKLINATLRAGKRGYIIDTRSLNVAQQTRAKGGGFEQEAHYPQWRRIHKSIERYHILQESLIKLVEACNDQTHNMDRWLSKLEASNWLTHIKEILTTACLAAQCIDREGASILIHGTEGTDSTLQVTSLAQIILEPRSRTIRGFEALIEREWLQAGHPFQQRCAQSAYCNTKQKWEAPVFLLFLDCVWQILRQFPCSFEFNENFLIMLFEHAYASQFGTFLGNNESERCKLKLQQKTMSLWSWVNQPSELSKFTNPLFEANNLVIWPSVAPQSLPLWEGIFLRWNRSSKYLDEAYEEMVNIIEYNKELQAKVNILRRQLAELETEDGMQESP

[15] = target: proteins of U3A human fibrosarcoma cells (4462 proteins detected) (Homo sapiens, UniProt Q99661); conditions: protein KIF2C; U3A cells
proteins of U3A human fibrosarcoma cells (4462 proteins detected) (Homo sapiens, UniProt Q99661), sequence (Q99661 whole entry): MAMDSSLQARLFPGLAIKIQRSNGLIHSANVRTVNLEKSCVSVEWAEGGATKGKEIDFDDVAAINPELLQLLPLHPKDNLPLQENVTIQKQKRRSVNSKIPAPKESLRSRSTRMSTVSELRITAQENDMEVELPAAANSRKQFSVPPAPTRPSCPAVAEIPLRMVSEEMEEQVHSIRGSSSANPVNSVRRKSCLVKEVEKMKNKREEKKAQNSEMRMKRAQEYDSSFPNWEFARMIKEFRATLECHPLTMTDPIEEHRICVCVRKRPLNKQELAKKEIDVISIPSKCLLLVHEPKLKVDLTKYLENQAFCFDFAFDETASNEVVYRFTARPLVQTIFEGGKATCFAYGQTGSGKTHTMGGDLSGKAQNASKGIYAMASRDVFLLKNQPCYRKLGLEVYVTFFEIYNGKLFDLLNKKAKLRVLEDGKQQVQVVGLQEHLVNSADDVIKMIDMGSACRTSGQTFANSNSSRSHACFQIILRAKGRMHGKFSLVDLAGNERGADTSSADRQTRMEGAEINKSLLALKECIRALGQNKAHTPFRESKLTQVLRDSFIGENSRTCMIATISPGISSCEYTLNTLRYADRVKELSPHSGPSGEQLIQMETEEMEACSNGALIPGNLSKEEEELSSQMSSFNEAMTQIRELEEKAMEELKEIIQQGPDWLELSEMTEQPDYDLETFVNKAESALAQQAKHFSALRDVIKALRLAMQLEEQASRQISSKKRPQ

[16] = target: proteins of U3A human fibrosarcoma cells (4462 proteins detected) (Homo sapiens, UniProt Q8NBJ4); conditions: protein GOLM1; U3A, 10 μM, 2 h
[17] = target: proteins of U3A human fibrosarcoma cells (4462 proteins detected) (Homo sapiens, UniProt Q9H5Q4); conditions: protein TFB2M; U3A cells
proteins of U3A human fibrosarcoma cells (4462 proteins detected) (Homo sapiens, UniProt Q9H5Q4), sequence (Q9H5Q4 20-396): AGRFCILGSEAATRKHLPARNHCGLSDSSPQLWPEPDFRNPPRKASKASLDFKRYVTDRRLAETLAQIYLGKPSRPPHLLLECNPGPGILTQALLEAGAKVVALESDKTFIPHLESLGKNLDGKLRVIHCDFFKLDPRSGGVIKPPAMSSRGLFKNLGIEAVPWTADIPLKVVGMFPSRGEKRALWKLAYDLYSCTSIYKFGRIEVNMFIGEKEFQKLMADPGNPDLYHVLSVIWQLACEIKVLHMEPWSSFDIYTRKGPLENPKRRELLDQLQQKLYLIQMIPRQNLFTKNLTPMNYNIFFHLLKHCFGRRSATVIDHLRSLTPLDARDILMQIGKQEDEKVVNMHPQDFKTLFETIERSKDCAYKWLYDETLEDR

[18] = target: proteins of U3A human fibrosarcoma cells (4462 proteins detected) (Homo sapiens, UniProt Q9UN37); conditions: protein VPS4A; U3A cells
[19] = target: proteins of U3A human fibrosarcoma cells (4462 proteins detected) (Homo sapiens, UniProt Q96TC7); conditions: protein RMDN3; U3A cells
[20] = target: proteins of U3A human fibrosarcoma cells (4462 proteins detected) (Homo sapiens, UniProt P36543); conditions: protein ATP6V1E1; soluble abundance after heat, U3A cells
[21] = target: proteins of U3A human fibrosarcoma cells (4462 proteins detected) (Homo sapiens, UniProt Q9NSV4); conditions: protein DIAPH3, U3A cells
proteins of U3A human fibrosarcoma cells (4462 proteins detected) (Homo sapiens, UniProt Q9NSV4), sequence (Q9NSV4 whole entry): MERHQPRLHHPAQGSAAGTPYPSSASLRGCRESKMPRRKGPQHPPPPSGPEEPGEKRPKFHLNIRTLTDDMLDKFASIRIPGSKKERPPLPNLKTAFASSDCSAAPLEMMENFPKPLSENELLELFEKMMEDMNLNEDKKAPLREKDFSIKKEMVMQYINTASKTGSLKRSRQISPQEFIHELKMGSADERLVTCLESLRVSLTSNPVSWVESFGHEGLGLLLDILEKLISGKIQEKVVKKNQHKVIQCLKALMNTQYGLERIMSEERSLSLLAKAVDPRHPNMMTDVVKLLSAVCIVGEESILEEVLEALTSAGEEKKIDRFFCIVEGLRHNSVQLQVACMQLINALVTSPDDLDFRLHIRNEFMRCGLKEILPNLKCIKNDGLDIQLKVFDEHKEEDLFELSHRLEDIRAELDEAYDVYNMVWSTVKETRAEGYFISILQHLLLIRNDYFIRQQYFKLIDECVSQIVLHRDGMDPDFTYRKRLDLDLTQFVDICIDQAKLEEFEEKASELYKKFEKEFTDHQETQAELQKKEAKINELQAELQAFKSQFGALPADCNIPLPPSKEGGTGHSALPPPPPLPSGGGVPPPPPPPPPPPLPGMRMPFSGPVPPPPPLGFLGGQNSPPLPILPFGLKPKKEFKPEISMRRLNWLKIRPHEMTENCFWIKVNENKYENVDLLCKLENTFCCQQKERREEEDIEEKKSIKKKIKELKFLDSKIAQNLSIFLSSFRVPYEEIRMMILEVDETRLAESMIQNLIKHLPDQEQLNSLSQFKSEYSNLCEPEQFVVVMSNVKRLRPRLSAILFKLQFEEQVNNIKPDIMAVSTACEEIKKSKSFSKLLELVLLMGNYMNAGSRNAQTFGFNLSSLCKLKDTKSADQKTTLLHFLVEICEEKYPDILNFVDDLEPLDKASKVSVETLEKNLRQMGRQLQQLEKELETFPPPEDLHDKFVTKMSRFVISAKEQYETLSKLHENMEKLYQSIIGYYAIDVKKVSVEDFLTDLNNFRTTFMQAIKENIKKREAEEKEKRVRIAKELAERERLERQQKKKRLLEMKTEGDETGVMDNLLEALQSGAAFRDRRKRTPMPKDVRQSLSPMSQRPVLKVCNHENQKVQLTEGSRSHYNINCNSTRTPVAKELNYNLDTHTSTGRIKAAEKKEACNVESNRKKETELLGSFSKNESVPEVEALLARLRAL

[22] = target: proteins of U3A human fibrosarcoma cells (4462 proteins detected) (Homo sapiens, UniProt O00505); conditions: protein KPNA3; U3A cells
[23] = target: proteins of U3A human fibrosarcoma cells (4462 proteins detected) (Homo sapiens, UniProt Q9UQ80); conditions: protein PA2G4, U3A cells
proteins of U3A human fibrosarcoma cells (4462 proteins detected) (Homo sapiens, UniProt Q9UQ80), sequence (Q9UQ80 whole entry): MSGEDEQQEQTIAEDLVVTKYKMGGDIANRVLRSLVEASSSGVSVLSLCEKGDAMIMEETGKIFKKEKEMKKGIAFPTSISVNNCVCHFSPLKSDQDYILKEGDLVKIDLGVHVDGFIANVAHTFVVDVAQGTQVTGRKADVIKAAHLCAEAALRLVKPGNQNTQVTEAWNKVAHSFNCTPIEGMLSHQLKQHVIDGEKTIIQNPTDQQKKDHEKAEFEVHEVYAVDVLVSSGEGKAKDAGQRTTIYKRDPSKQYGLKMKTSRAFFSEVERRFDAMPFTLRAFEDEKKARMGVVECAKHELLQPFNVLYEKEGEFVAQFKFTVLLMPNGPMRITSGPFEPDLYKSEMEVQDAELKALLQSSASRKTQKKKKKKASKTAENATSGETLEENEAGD

[24] = target: proteins of U3A human fibrosarcoma cells (4462 proteins detected) (Homo sapiens, UniProt Q9BZZ5); conditions: protein API5; U3A cells
[25] = target: proteins of U3A human fibrosarcoma cells (4462 proteins detected) (Homo sapiens, UniProt Q9HAN9); conditions: protein NMNAT1, U3A cells
[26] = target: proteins of U3A human fibrosarcoma cells (4462 proteins detected) (Homo sapiens, UniProt Q09161); conditions: protein NCBP1; soluble abundance after heat, U3A cells
[27] = target: proteins of U3A human fibrosarcoma cells (4462 proteins detected) (Homo sapiens, UniProt Q6P1N0); conditions: protein CC2D1A; soluble abundance after heat, U3A cells
proteins of U3A human fibrosarcoma cells (4462 proteins detected) (Homo sapiens, UniProt Q6P1N0), sequence (Q6P1N0 whole entry): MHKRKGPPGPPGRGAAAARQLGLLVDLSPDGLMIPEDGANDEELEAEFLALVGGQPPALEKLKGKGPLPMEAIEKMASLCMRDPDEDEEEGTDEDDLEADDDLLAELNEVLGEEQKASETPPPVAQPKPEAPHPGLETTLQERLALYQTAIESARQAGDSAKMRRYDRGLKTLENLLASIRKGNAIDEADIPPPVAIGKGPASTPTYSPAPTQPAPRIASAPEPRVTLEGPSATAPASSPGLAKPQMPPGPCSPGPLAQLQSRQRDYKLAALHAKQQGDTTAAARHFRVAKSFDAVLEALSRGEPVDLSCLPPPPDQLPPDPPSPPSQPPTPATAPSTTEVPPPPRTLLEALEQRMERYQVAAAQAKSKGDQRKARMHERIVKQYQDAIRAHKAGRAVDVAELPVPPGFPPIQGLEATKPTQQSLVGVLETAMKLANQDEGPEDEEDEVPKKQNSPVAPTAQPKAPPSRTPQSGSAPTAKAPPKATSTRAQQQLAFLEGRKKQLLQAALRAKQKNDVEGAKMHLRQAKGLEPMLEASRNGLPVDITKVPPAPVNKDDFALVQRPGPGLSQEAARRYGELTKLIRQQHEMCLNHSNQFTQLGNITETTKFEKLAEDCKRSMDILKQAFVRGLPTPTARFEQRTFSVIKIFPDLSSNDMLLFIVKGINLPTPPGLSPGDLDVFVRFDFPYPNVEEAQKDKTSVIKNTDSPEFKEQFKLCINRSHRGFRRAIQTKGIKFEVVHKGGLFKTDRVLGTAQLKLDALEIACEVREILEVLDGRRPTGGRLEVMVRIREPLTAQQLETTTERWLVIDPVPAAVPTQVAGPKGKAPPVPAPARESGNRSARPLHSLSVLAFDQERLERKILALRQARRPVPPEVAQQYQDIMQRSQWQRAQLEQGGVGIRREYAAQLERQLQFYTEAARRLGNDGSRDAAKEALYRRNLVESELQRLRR

## CCc1nc(N)nc(N)c1-c1ccc(Cl)cc1 [pyrimethamine]
[1]
  Log2 (PYR/DMSO), MLKL: 0.27
[2]
  Log2 (PYR/DMSO): 0.19
[3]
  Log2 (PYR/DMSO): -0.03
[4]
  Log2 (PYR/DMSO): 0.17
[5]
  Log2 (PYR/DMSO): 0.22
[6]
  Log2 (PYR/DMSO): -0.03
[7]
  Log2 (PYR/DMSO): 0.16
[8]
  Log2 (PYR/DMSO): -0.04
[9]
  Log2 (PYR/DMSO): -0.05
[10]
  Log2 (PYR/DMSO): 0.16
[11]; protein AGO2, AGO1, AGO3, AGO4, soluble abundance after heat, U3A cells
  Log2 (PYR/DMSO): 0.14
[11]; protein ANXA8L1, ANXA8L2, ANXA8, U3A, 10 μM, 2 h
  Log2 (PYR/DMSO), ANXA8L1; ANXA8L2; ANXA8: -0.40
[11]; protein ATP2A2, ATP2A1, ATP2A3, U3A, 10 μM, 2 h
  Log2 (PYR/DMSO), ATP2A2; ATP2A1; ATP2A3: 0.28
[11]; protein CUX1, U3A cells
  Log2 (PYR/DMSO): 0.20
[11]; protein DHRS4, DHRS4L1, soluble abundance after heat, U3A cells
  Log2 (PYR/DMSO): 0.13
[11]; protein EIF3C, EIF3CL, U3A cells
  Log2 (PYR/DMSO): 0.18
[11]; protein Em:AP000351.3, GSTT2, GSTT2B, U3A cells
  Log2 (PYR/DMSO): -0.05
[11]; protein H2AFX, HIST1H2AJ, HIST1H2AH, H2AFJ, HIST2H2AC, HIST1H2AC, HIST3H2A, HIST2H2AA3, HIST1H2AD, HIST1H2AG, HIST1H2AB, HIST1H2AA, HIST2H2AB, U3A cells
  Log2 (PYR/DMSO): 0.19
[11]; protein HIST2H3A, HIST3H3, HIST1H3A, H3F3B, H3F3A, HIST2H3PS2, H3F3C, U3A cells
  Log2 (PYR/DMSO): 0.22
[11]; protein HPCAL1, HPCA, soluble abundance after heat, U3A cells
  Log2 (PYR/DMSO): 0.15
[11]; protein KHDRBS1, KHDRBS2, soluble abundance after heat, U3A cells
  Log2 (PYR/DMSO): 0.14
[11]; protein KIAA2012, SPEG, U3A, 10 μM, 2 h
  Log2 (PYR/DMSO), KIAA2012; SPEG: 0.26
[11]; protein MOCS2, U3A cells
  Log2 (PYR/DMSO): -0.04
[11]; protein POLR2J3, POLR2J, POLR2J2, U3A cells
  Log2 (PYR/DMSO): -0.04
[11]; protein POM121C, POM121, POMZP3, soluble abundance after heat, U3A cells
  Log2 (PYR/DMSO): 0.14
[11]; protein PPP1R2, PPP1R2P3, U3A cells
  Log2 (PYR/DMSO): -0.04
[11]; protein PRSS1, PRSS3P2, PRSS2, U3A, 10 μM, 2 h
  Log2 (PYR/DMSO), PRSS1; PRSS3P2; PRSS2: -0.20
[11]; protein SLC25A5, SLC25A4, SLC25A6, SLC25A31, U3A, 10 μM, 2 h
  Log2 (PYR/DMSO), SLC25A5; SLC25A4; SLC25A6; SLC25A31: 0.31
[11]; protein UBE2Q1, UBE2Q2, U3A cells
  Log2 (PYR/DMSO): 0.20
[12]
  Log2 (PYR/DMSO): 0.14
[13]
  Log2 (PYR/DMSO): 0.22
[14]
  Log2 (PYR/DMSO): 0.15
[15]
  Log2 (PYR/DMSO): 0.17
[16]
  Log2 (PYR/DMSO), GOLM1: -0.22
[17]
  Log2 (PYR/DMSO): 0.18
[18]
  Log2 (PYR/DMSO): 0.19
[19]
  Log2 (PYR/DMSO): 0.15
[20]
  Log2 (PYR/DMSO): 0.14
[21]
  Log2 (PYR/DMSO): -0.04
[22]
  Log2 (PYR/DMSO): 0.18
[23]
  Log2 (PYR/DMSO): -0.03
[24]
  Log2 (PYR/DMSO): 0.24
[25]
  Log2 (PYR/DMSO): -0.04
[26]
  Log2 (PYR/DMSO): 0.14
[27]
  Log2 (PYR/DMSO): 0.15
